Our source for the MIC values is patent US20260274892A1, “MACROCYCLIC BROAD SPECTRUM ANTIBIOTICS” (RQx Pharmaceuticals, Inc., priority 2017, published 2026).

The subject of the assay is Escherichia coli ATCC 25922. In words: Minimum inhibitory concentration (MIC), CLSI broth micro-dilution, E. coli. Particulars: Escherichia coli. Type of assay: cell-based. The essentials:
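Colonies grown 20 h at 35° C on Trypticase Soy agar (MRSA) or Luria agar (E. coli) were suspended in cation-adjusted Mueller Hinton broth with 0.002% Tween-80. Suspensions were added at OD600 0.0005 to 10-point twofold compound dilutions, then incubated 22 h at 35° C.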

Where [1] appears, read: ATCC25922, Table 7, cation adjusted Mueller Hinton Broth + 0.002% Tween-80, 35° C., 22 hours.
[2] abbreviates: ATCC25922, 22 h, Table 7, cation adjusted Mueller Hinton Broth + 0.002% Tween-80, 35° C.

Turning to `Cc1nc(-c2ccc(C(C)(C)C)cc2)nc(C)c1C(=O)N[C@@H](CCN)C(=O)N(C)[C@@H]1C(=O)N[C@@H](C)C(=O)N[C@H](C(=O)NCC#N)Cc2cc(NC(N)=O)c(O)c(c2)-c2cc1ccc2OCCN` (racemic) [Compound 618, rac-(8S,11S,14S)-18-(2-aminoethoxy)-N-(cyanomethyl)-3-hydroxy-11-methyl-14-[methyl-[rac-(2S)-4-amino-2-[[2-(4-tert-butylphenyl)-4,6-dimethyl-pyrimidine-5-carbonyl]amino]butanoyl]amino]-10,13-dioxo-4-ureido-9,12-diazatricyclo[13.3.1.12,6]icosa-1(18),2(20),3,5,15(19),16-hexaene-8-carboxamide], the MIC under setting [1] came to 0.19 µM.
Turning to `Cc1nc(-c2ccc(C(C)(C)C)cc2)nc(C)c1C(=O)N[C@@H](CCN)C(=O)N(C)[C@@H]1C(=O)N[C@@H](C)C(=O)N[C@H](C(=O)NCC#N)Cc2cc(NC(N)=O)c(OCCN)c(c2)-c2cc1ccc2OCCN` (racemic) [Compound 619, rac-(8S,11S,14S)-3,18-bis(2-aminoethoxy)-N-(cyanomethyl)-11-methyl-14-[methyl-[rac-(2S)-4-amino-2-[[2-(4-tert-butylphenyl)-4,6-dimethyl-pyrimidine-5-carbonyl]amino]butanoyl]amino]-10,13-dioxo-4-ureido-9,12-diazatricyclo[13.3.1.12,6]icosa-1(18),2(20),3,5,15(19),16-hexaene-8-carboxamide], under setting [1], the MIC is 0.13 µM.
`CC(=O)Nc1cc2cc(c1O)-c1cc(ccc1OCCN)C[C@@H](C(=O)NCC#N)NC(=O)[C@H](C)NC(=O)[C@H]2N(C)C(=O)[C@H](CCN)NC(=O)c1c(C)nc(-c2ccc(C(C)(C)C)cc2)nc1C` (racemic) [Compound 620, rac-(8S,11S,14S)-17-acetamido-3-(2-aminoethoxy)-N-(cyanomethyl)-18-hydroxy-11-methyl-14-[methyl-[rac-(2S)-4-amino-2-[[2-(4-tert-butylphenyl)-4,6-dimethyl-pyrimidine-5-carbonyl]amino]butanoyl]amino]-10,13-dioxo-9,12-diazatricyclo[13.3.1.12,6]icosa-1(18),2(20),3,5,15(19),16-hexaene-8-carboxamide]: the MIC under setting [1] was determined as 0.5 µM.
Take `Cc1nc(-c2ccc(C(C)(C)C)cc2)nc(C)c1C(=O)N[C@@H](CCN)C(=O)N(C)[C@@H]1C(=O)N[C@@H](C)C(=O)N[C@H](C(=O)NCC#N)Cc2ccc(OCCN)c(c2)-c2cc1cc(NC(N)=O)c2O` (racemic) [Compound 621, rac-(8S,11S,14S)-3-(2-aminoethoxy)-N-(cyanomethyl)-18-hydroxy-11-methyl-14-[methyl-[rac-(2S)-4-amino-2-[[2-(4-tert-butylphenyl)-4,6-dimethyl-pyrimidine-5-carbonyl]amino]butanoyl]amino]-10,13-dioxo-17-ureido-9,12-diazatricyclo[13.3.1.12,6]icosa-1(18),2(20),3,5,15(19),16-hexaene-8-carboxamide]: under setting [2], the minimal inhibitory concentration (MIC) amounted to 0.25 µM.
In the case of `Cc1nc(-c2ccc(C(C)(C)C)cc2)nc(C)c1C(=O)N[C@@H](CCN)C(=O)N(C)[C@@H]1C(=O)N[C@@H](C)C(=O)N[C@H](C(=O)NCC#N)Cc2ccc(OCCN)c(c2)-c2cc1cc(NC(N)=O)c2OCCN` (racemic) [Compound 622, rac-(8S,11S,14S)-3,18-bis(2-aminoethoxy)-N-(cyanomethyl)-11-methyl-14-[methyl-[rac-(2S)-4-amino-2-[[2-(4-tert-butylphenyl)-4,6-dimethyl-pyrimidine-5-carbonyl]amino]butanoyl]amino]-10,13-dioxo-17-ureido-9,12-diazatricyclo[13.3.1.12,6]icosa-1(18),2(20),3,5,15(19),16-hexaene-8-carboxamide], under setting [1], the minimal inhibitory concentration (MIC) is 0.5 µM.
Turning to `Cc1nc(-c2ccc(C(C)(C)C)cc2)nc(C)c1C(=O)N[C@@H](CCN)C(=O)N(C)[C@@H]1C(=O)N[C@@H](C)C(=O)N[C@H](C(=O)NCC#N)Cc2ccc(N)c(c2)-c2cc1ccc2OCCN` (racemic) [Compound 624, rac-(8S,11S,14S)-3-amino-18-(2-aminoethoxy)-N-(cyanomethyl)-11-methyl-14-[methyl-[rac-(2S)-4-amino-2-[[2-(4-tert-butylphenyl)-4,6-dimethyl-pyrimidine-5-carbonyl]amino]butanoyl]amino]-10,13-dioxo-9,12-diazatricyclo[13.3.1.12,6]icosa-1(18),2(20),3,5,15(19),16-hexaene-8-carboxamide], the minimal inhibitory concentration (MIC) under setting [2] is 0.38 µM.
As for `COc1cc(O)c2cc1-c1cc(ccc1OCCN)[C@H](N(C)C(=O)[C@H](CCN)NC(=O)c1c(C)nc(-c3ccc(C(C)(C)C)cc3)nc1C)C(=O)N[C@@H](C)C(=O)N[C@H](C(=O)NCC#N)C2` (racemic) [Compound 625, rac-(8S,11S,14S)-18-(2-aminoethoxy)-N-(cyanomethyl)-5-hydroxy-3-methoxy-11-methyl-14-[methyl-[rac-(2S)-4-amino-2-[[2-(4-tert-butylphenyl)-4,6-dimethyl-pyrimidine-5-carbonyl]amino]butanoyl]amino]-10,13-dioxo-9,12-diazatricyclo[13.3.1.12,6]icosa-1(18),2(20),3,5,15(19),16-hexaene-8-carboxamide], the MIC under setting [1] came out at 0.38 µM.
With `Cc1nc(-c2ccc(C(C)(C)C)cc2)nc(C)c1C(=O)N[C@@H](CCN)C(=O)N(C)[C@@H]1C(=O)N[C@@H](C)C(=O)N[C@H](C(=O)NCC#N)Cc2cc(c(O)cc2CN)-c2cc1ccc2OCCN` (racemic) [Compound 626, rac-(8S,11S,14S)-18-(2-aminoethoxy)-5-(aminomethyl)-N-(cyanomethyl)-3-hydroxy-11-methyl-14-[methyl-[rac-(2S)-4-amino-2-[[2-(4-tert-butylphenyl)-4,6-dimethyl-pyrimidine-5-carbonyl]amino]butanoyl]amino]-10,13-dioxo-9,12-diazatricyclo[13.3.1.12,6]icosa-1(18),2(20),3,5,15(19),16-hexaene-8-carboxamide], the MIC under setting [1] amounted to 0.25 µM.
Consider `COc1cc(OCCN)c2cc1-c1cc(ccc1OCCN)[C@H](N(C)C(=O)[C@H](CNS(N)(=O)=O)NC(=O)c1c(C)nc(-c3ccc(C(C)(C)C)cc3)nc1C)C(=O)N[C@@H](C)C(=O)N[C@H](C(=O)NCC#N)C2` (racemic) [Compound 627, rac-(8S,11S,14S)-5,18-bis(2-aminoethoxy)-N-(cyanomethyl)-3-methoxy-11-methyl-14-[methyl-[rac-(2S)-2-[[2-(4-tert-butylphenyl)-4,6-dimethyl-pyrimidine-5-carbonyl]amino]-3-(sulfamoylamino)propanoyl]amino]-10,13-dioxo-9,12-diazatricyclo[13.3.1.12,6]icosa-1(18),2(20),3,5,15(19),16-hexaene-8-carboxamide], for which the minimum inhibitory concentration (MIC) under setting [1] was found to be 0.5 µM.
The same measure, in the same setting: then `Cc1nc(-c2ccc(C(C)(C)C)cc2)nc(C)c1C(=O)N[C@@H](CNS(N)(=O)=O)C(=O)N(C)[C@@H]1C(=O)N[C@@H](C)C(=O)N[C@H](C(=O)NCC#N)Cc2cc(c(O)cc2OCCN)-c2cc1ccc2OCCN` (racemic) [Compound 628, rac-(8S,11S,14S)-5,18-bis(2-aminoethoxy)-N-(cyanomethyl)-3-hydroxy-11-methyl-14-[methyl-[rac-(2S)-2-[[2-(4-tert-butylphenyl)-4,6-dimethyl-pyrimidine-5-carbonyl]amino]-3-(sulfamoylamino)propanoyl]amino]-10,13-dioxo-9,12-diazatricyclo[13.3.1.12,6]icosa-1(18),2(20),3,5,15(19),16-hexaene-8-carboxamide], with 0.44 µM.

What is called MIC is the lowest concentration found to suppress growth.
